Test results: patent US20260234185A1, “ANTI-AGING COMPOSITION COMPRISING PEPTIDE COMPLEX AS ACTIVE INGREDIENT” (priority 2023, published 2026)
Where no end group is shown, it is not given here.

How the values were obtained:
[1] = system: AMP-activated protein kinase (AMPK); experiment: Western blot of AMPK phosphorylation in adipocytes; assay type: cell-based; details: differentiated 3T3-L1 adipocytes; 0.2, 2, 20 μg/mL; 1 hour; Western blot (FIGS. 1a, 1b)
Experimental: An experiment was performed to determine whether the peptide complex prepared in Preparation Example 1 using adipocytes increases the phosphorylation of AMP-activated protein kinase (AMPK), which is a longevity-related protein, and increases the expression levels of sirtuin 1 (SIRT1) and fibroblast growth factor 21 (FGF21) proteins in adipocytes.
When 3T3-L1 preadipocytes reached 80% confluence, they were seeded at 5×10^3 cells/well in a 96-well plate and used for the experiment. Two days after reaching confluence, the medium was replaced with a differentiation-inducing medium to induce the differentiation into adipocytes, and two days after the induction, the cells were cultured for 2 days in a medium containing 10% FBS and 10 μg/mL insulin, and then the medium was replaced with 10% FBS every 2 days until their differentiation into adipocytes. Once the differentiation was complete, the medium was replaced with a serum-free medium and cultured for 4 hours to induce starvation. The peptide complexes were treated at concentrations of 0.2 μg/mL, 2 μg/mL, and 20 μg/mL, incubated for 1 hour, dissolved by adding dissolution buffer thereto, and the proteins obtained by centrifugation at 4° C. and 12,000 rpm for 30 minutes were quantified using a BCA kit. […]

AMPK = experiment: Western blot of AMPK phosphorylation in myocytes with palmitate-induced insulin metabolic disorder; assay type: cell-based, mouse; details: C2C12 myocytes in insulin metabolic disorder induced by palmitate treatment; 0.2, 2, 20 μg/mL; 24 hours; Western blot (FIGS. 7a, 7b)
Experimental: An experiment was performed to determine whether the peptide complex increases AMPK phosphorylation and SIRT1 expression levels in myocytes in a state of insulin metabolic disorder induced by palmitate treatment.
(§1) C2C12 cells, mouse-derived myoblasts, were cultured in DMEM medium containing 1% P/S and 2% BCS. When the cell confluency reached 70-80%, the cells were seeded in a 6-well culture plate. When the cell confluency in the 6-well culture plate reached 100%, the medium was replaced with differentiation medium (1% P/S, 2% horse serum), and thereafter, the differentiation medium (1% P/S, 2% horse serum) was replaced once every two days. Five days after the first replacement, the peptide complex was treated at concentrations of 0.2 μg/mL, 2 μg/mL, and 20 μg/mL and cultured for 24 hours. The group untreated with the peptide complex was used as the control. After dissolving by adding dissolution buffer thereto, the proteins obtained were centrifuged at 4° C. and 12,000 rpm for 30 minutes, and quantified using a BCA kit. The proteins were subjected to sodium dodecyl sulfate-polyacrylamide gel electrophoresis (SDS-PAGE) and then electrotransferred onto a membrane. The membrane with the proteins attached was blocked by treating it with 5% skim milk, and then the primary antibody was reacted overnight at 4° C. […]

FGF21 = experiment: Western blot of FGF21 protein expression in myocytes; assay type: cell-based, mouse; details: differentiated C2C12 myocytes; 0.2, 2, 20 μg/mL; 24 hours; Western blot (FIGS. 6a, 6b)
Experimental: An experiment was performed to determine whether the peptide complex increases the phosphorylation of AMPK and the expression of SIRT1 and FGF21 proteins in myocytes.
as §1

peptide complex: prepared by mixing equal amounts of the peptide of SEQ ID NO: 1 (LKTRN) and the peptide of SEQ ID NO: 2 (KGSATGWMA) (also: mixture of two peptides)
increased: phosphorylation of AMPKα [1] | phosphorylation of AMPK (AMPK) | expression level of FGF21 protein (FGF21)
